# Experimental data taken from US6683114B2, “Treatment of psoriasis” (Eli Lilly and Company, priority 2000, dated 2004).
# Structures can show the parent of a compound that is named as a salt.
# Tested on: plaque-like psoriasis
# Experiment: Treatment of a subject with moderately severe plaque-like psoriasis (case report, Example 1)
# Format: in vivo, human
# Details: person, plaque-like psoriasis of legs; 60 mg twice daily for 12 consecutive days
# Description: The subject presented with moderately severe plaque-like psoriasis of their legs. The subject had suffered from psoriasis for most of their life, and the condition had worsened immediately prior to the present study. […] The subject was treated with 60 mg of tomoxetine hydrochloride, twice daily for 12 consecutive days.
smiles,measurement,value
"CNCC[C@@H](Oc1ccccc1C)c1ccccc1 [tomoxetine hydrochloride, (R)-(−)-N-methyl-3-(2-methylphenoxy)-3-phenylpropylamine]",Clinical outcome of psoriasis lesions at final assessment,significant improvement
